Data on twelve compounds can be found in PubChem BioAssay (NCI).

Among the test systems are CAKI-1 renal; COLO 205 colon; HCT-15 colon; HOP-62 NSCLC; HOP-92 NSCLC; SF-268 CNS; LOX IMVI melanoma; SK-OV-3 ovarian; NCI-H226 lung.
Experiment in all cases: NCI tumour cell line growth inhibition, 48 h

Structures are written as SMILES.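 96-well plates; 48 h exposure; 5 concentrations. Endpoints by linear interpolation between flanking doses. Not reached: highest tested concentration assigned. GI50 is the concentration that inhibits growth by half. The concentration for full growth arrest is given as TGI.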

In the case of `NCCCNCc1c2ccccc2c(CNCCCN)c2ccccc12`, the TGI was greater than 100 µM with CAKI-1 renal; 22.8 µM in the experiment with COLO 205 colon; 54.1 µM in the experiment with HCT-15 colon; 62.6 µM in the experiment with HOP-62 NSCLC; 49.1 µM in the experiment with HOP-92 NSCLC; 20.2 µM in the experiment with SF-268 CNS.

`COC(=O)CCCCCOS(=O)(=O)c1ccc(C)cc1`: the TGI in the experiment on COLO 205 colon, in the experiment with HCT-15 colon, with HOP-92 NSCLC, in the experiment on LOX IMVI melanoma, with SF-268 CNS and in the experiment on SK-OV-3 ovarian was greater than 100 µM throughout.

`CSc1ccc(Cc2cc(C(C)(C)C)cc(C(C)(C)C)c2O)cc1`: the TGI in the experiment on CAKI-1 renal is 30.5 µM; in the experiment with HCT-15 colon it was 27.6 µM; with HOP-62 NSCLC it was 35 µM; in the experiment on LOX IMVI melanoma it was 22.4 µM; with SF-268 CNS, 29.7 µM; in the experiment on SK-OV-3 ovarian, 42.4 µM.

For `O=[N+]([O-])c1cc(I)cc(/C=N/NS(=O)(=O)c2ccc(F)cc2)c1O`, the TGI in the experiment on CAKI-1 renal came out at 63.1 µM; in the experiment with COLO 205 colon it was 32.4 µM; in the experiment with HCT-15 colon, 64.7 µM; in the experiment on HOP-62 NSCLC, 55.8 µM; in the experiment on HOP-92 NSCLC, 36.3 µM; in the experiment with LOX IMVI melanoma it was 57.4 µM. Besides, the values for the TGI with SF-268 CNS and with SK-OV-3 ovarian were 61.5 µM and 70.2 µM, respectively.

On to `CC1=NC(C)=C(/C(C)=N/NC(=O)c2ccccc2O)C(C)/C1=C(/C)NNC(=O)c1ccccc1O` (stereo not drawn), for which the TGI in the experiment with CAKI-1 renal is greater than 100 µM; in the experiment with HCT-15 colon, 99 µM; in the experiment with HOP-62 NSCLC, greater than 100 µM; in the experiment with HOP-92 NSCLC, 85.9 µM; with LOX IMVI melanoma it was 51.7 µM; in the experiment with SF-268 CNS it was greater than 100 µM. In the experiment with SK-OV-3 ovarian, this compound showed a TGI greater than 100 µM.

With `C=C1C2CC(OC(C)=O)C3(C)C(c4ccoc4)OC(=O)[C@@H](O)[C@]13OC1C[C@H](OC(C)=O)C(C)(C)[C@H](C(O)C(=O)OC)[C@]12C` (stereo partly drawn), the TGI is greater than 100 µM in the experiment on COLO 205 colon; greater than 100 µM in the experiment with HCT-15 colon; 57.6 µM in the experiment with HOP-92 NSCLC; greater than 100 µM with LOX IMVI melanoma; greater than 100 µM with NCI-H226 lung; greater than 100 µM with SK-OV-3 ovarian.

For the compound `Nc1ccc(C(=O)CC2(O)C(=O)Nc3ccccc32)cc1` (stereo not drawn), the TGI in the experiment on CAKI-1 renal, in the experiment with COLO 205 colon, in the experiment on HCT-15 colon, in the experiment with HOP-92 NSCLC, in the experiment on LOX IMVI melanoma and in the experiment on NCI-H226 lung was greater than 100 µM in each case. Also, the TGI with SF-268 CNS and in the experiment on SK-OV-3 ovarian was greater than 100 µM each time.

Consider `CCCCCCCCCCNC(=S)OC`, for which the TGI is greater than 100 µM with CAKI-1 renal; 86.7 µM with HCT-15 colon; greater than 100 µM in the experiment on HOP-62 NSCLC; 65.9 µM with HOP-92 NSCLC; 39.6 µM with LOX IMVI melanoma; greater than 100 µM in the experiment on SF-268 CNS. In the experiment on SK-OV-3 ovarian, this compound gave a TGI greater than 100 µM.

Consider `Cn1nc(-c2ccccc2)c2c(/C=C/c3ccc(F)cc3)onc2c1=O`, for which the TGI with CAKI-1 renal is 66 µM; in the experiment on COLO 205 colon it was greater than 100 µM; with HCT-15 colon it was greater than 100 µM; in the experiment on HOP-62 NSCLC, greater than 100 µM; in the experiment on HOP-92 NSCLC, greater than 100 µM; in the experiment with LOX IMVI melanoma it was greater than 100 µM. In addition, the TGI in the experiment with SF-268 CNS and in the experiment with SK-OV-3 ovarian was greater than 100 µM each time.

As for `Cn1c(=O)nc2n(-c3ccc(F)c(F)c3)c3ccccc3nc-2c1=O`, the TGI was greater than 100 µM with CAKI-1 renal; 15.7 µM in the experiment on COLO 205 colon; 20.4 µM with HCT-15 colon; greater than 100 µM with HOP-62 NSCLC; greater than 100 µM with NCI-H226 lung; greater than 100 µM in the experiment with SF-268 CNS. The compound also yielded a TGI in the experiment with SK-OV-3 ovarian greater than 100 µM.

On to `O=C(N/N=C/c1ccc([N+](=O)[O-])cc1)c1ccccc1Nc1ccnc(C(F)(F)F)c1`, for which the GI50 in the experiment on CAKI-1 renal was 13.5 µM; in the experiment on COLO 205 colon, 18.2 µM; in the experiment on HCT-15 colon, 3.8 µM; in the experiment with HOP-62 NSCLC it was 31.2 µM; in the experiment on LOX IMVI melanoma, 19.8 µM; with NCI-H226 lung, 15.5 µM. Also, the GI50 was 10.5 µM with SF-268 CNS and 28 µM in the experiment on SK-OV-3 ovarian. Also, the TGI was 36.4 µM in the experiment with CAKI-1 renal; 39.8 µM with COLO 205 colon; greater than 100 µM in the experiment on HCT-15 colon; 95.1 µM with HOP-62 NSCLC; greater than 100 µM in the experiment on LOX IMVI melanoma; 74.3 µM in the experiment with NCI-H226 lung. The TGI in the experiment with SF-268 CNS stood at 82.8 µM; with SK-OV-3 ovarian, 81.4 µM.

As for `Clc1ccc(-c2nnc(-c3nn(-c4ccccc4)c4nc5ccccc5nc34)o2)cc1`, the TGI with CAKI-1 renal, in the experiment with COLO 205 colon, in the experiment on HCT-15 colon, with HOP-62 NSCLC, with LOX IMVI melanoma and with NCI-H226 lung was greater than 100 µM in each case. In addition, the TGI with SF-268 CNS and with SK-OV-3 ovarian was greater than 100 µM throughout.
